# Test results from PubChem BioAssay AID2060899 (Molecular Pharmacology Branch, DTP, NCI, 2025).
# Tested on: 565726-208-R1-J5-PDC complex spheroids, growth inhibition
# Assay: Anticancer human tumor 565726-208-R1-J5-PDC patient-derived pancreatic adenocarcinoma cell line growth inhibition [RAS]
# Conditions: for IC50: curve of first compound; for viability, T/C: stronger effect = lower value
# Summary of the method: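 Tumour cells grown as complex spheroids with HUVEC endothelial cells and mesenchymal stem cells, treated with RAS pathway inhibitor combinations. Each agent spans half-log steps from near clinical Cmax, or 10 microM where Cmax is unknown.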
# 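Also: spheroids exposed to compounds for seven days before readout.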
# 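For viability, T/C in this document: 100% = DMSO vehicle control viability.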
smiles,measurement,setting,value
CC(=O)OC12COC1CC(O)C1(C)C(=O)C(O)C3=C(C)C(OC(=O)C(O)C(NC(=O)OC(C)(C)C)c4ccccc4)CC(O)(C(OC(=O)c4ccccc4)C21)C3(C)C (configuration not stated) + CCn1c(-c2cc(N3CCN(C)CC3)cnc2C(C)OC)c2c3cc(ccc31)-c1csc(n1)CC(NC(=O)C1CC1C)C(=O)N1CCCC(N1)C(=O)OCC(C)(C)C2,IC50,second compound 0.000949 µM,< 31.6 nM
same,IC50,second compound 0.003 µM,< 31.6 nM
same,IC50,second compound 0.00949 µM,< 31.6 nM
same,IC50,second compound 0.03 µM,< 31.6 nM
same,IC50,second compound 0.0949 µM,< 31.6 nM
same,IC50,second compound 0.3 µM,< 31.6 nM
same,"viability, T/C","second compound 0.000949 µM, first compound 0.0316 µM",20.3%
same,"viability, T/C","second compound 0.000949 µM, first compound 0.1 µM",17%
same,"viability, T/C","second compound 0.000949 µM, first compound 0.316 µM",19.2%
same,"viability, T/C","second compound 0.000949 µM, first compound 1 µM",17.7%
same,"viability, T/C","second compound 0.000949 µM, first compound 3.16 µM",20.2%
same,"viability, T/C","second compound 0.000949 µM, first compound 10 µM",20.8%
same,"viability, T/C","second compound 0.003 µM, first compound 0.0316 µM",20.4%
same,"viability, T/C","second compound 0.003 µM, first compound 0.1 µM",17.7%
same,"viability, T/C","second compound 0.003 µM, first compound 0.316 µM",17.2%
same,"viability, T/C","second compound 0.003 µM, first compound 1 µM",15.5%
same,"viability, T/C","second compound 0.003 µM, first compound 3.16 µM",18.7%
same,"viability, T/C","second compound 0.003 µM, first compound 10 µM",18.4%
same,"viability, T/C","second compound 0.00949 µM, first compound 0.0316 µM",17.9%
same,"viability, T/C","second compound 0.00949 µM, first compound 0.1 µM",17.1%
same,"viability, T/C","second compound 0.00949 µM, first compound 0.316 µM",14.7%
same,"viability, T/C","second compound 0.00949 µM, first compound 1 µM",16%
same,"viability, T/C","second compound 0.00949 µM, first compound 3.16 µM",17.6%
same,"viability, T/C","second compound 0.00949 µM, first compound 10 µM",15.2%
same,"viability, T/C","second compound 0.03 µM, first compound 0.0316 µM",14.5%
same,"viability, T/C","second compound 0.03 µM, first compound 0.1 µM",13.7%
same,"viability, T/C","second compound 0.03 µM, first compound 0.316 µM",11.5%
same,"viability, T/C","second compound 0.03 µM, first compound 1 µM",14.5%
same,"viability, T/C","second compound 0.03 µM, first compound 3.16 µM",13.7%
same,"viability, T/C","second compound 0.03 µM, first compound 10 µM",13.6%
same,"viability, T/C","second compound 0.0949 µM, first compound 0.0316 µM",11.7%
same,"viability, T/C","second compound 0.0949 µM, first compound 0.1 µM",13%
same,"viability, T/C","second compound 0.0949 µM, first compound 0.316 µM",14.6%
same,"viability, T/C","second compound 0.0949 µM, first compound 1 µM",12.5%
same,"viability, T/C","second compound 0.0949 µM, first compound 3.16 µM",14.1%
same,"viability, T/C","second compound 0.0949 µM, first compound 10 µM",11.3%
same,"viability, T/C","second compound 0.3 µM, first compound 0.0316 µM",10.4%
same,"viability, T/C","second compound 0.3 µM, first compound 0.1 µM",10.5%
same,"viability, T/C","second compound 0.3 µM, first compound 0.316 µM",11.4%
same,"viability, T/C","second compound 0.3 µM, first compound 1 µM",11.3%
same,"viability, T/C","second compound 0.3 µM, first compound 3.16 µM",12%
same,"viability, T/C","second compound 0.3 µM, first compound 10 µM",10.4%
